Measured values reported in patent publication US20140256756A1, “PIPERIDINYL-SUBSTITUTED LACTAMS AS GPR119 MODULATORS” (Array BioPharma Inc., priority 2011, published 2014).

Tested on: modified version of the GPR119 receptor (94% identity to human receptor)
Assay: cAMP production assay (LANCE cAMP kit, TR-FRET) in HEK-293 cells
Assay type: cell-based
Settings: for cAMP production in HEK-293 cells: HEK-293 cells stably expressing modified GPR119, test compounds 0.2 nM to 10 μM, one-hour incubation; for Fold over baseline: increase in cAMP relative to basal levels, agonist activity if 1.5-fold or greater
How it was run: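 Agonist activity meant a 1.5-fold or greater cAMP rise over basal, with levels interpolated from a standard curve after TR-FRET competition read-out. HEK-293 cells with tetracycline-inducible modified GPR119 (1 μg/mL doxycycline overnight) were incubated one hour at ambient temperature with 0.2 nM to 10 μM compound, 0.5% DMSO.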

Row | Structure (SMILES) | cAMP production in HEK-293 cells [nmol] | Fold over baseline
1 | CS(=O)(=O)c1cc(F)c(O[C@H]2CCN(C3CCN(c4cnc(C(F)(F)F)o4)CC3)C2=O)cc1F [Example 97, (S)-3-(2,5-difluoro-4-(methylsulfonyl)phenoxy)-1-(1-(2-(trifluoromethyl)oxazol-5-yl)piperidin-4-yl)pyrrolidin-2-one] | 19.0 | 4.1
2 | Cc1nn(C)c(Oc2nsc(N3CCC(N4CC[C@H](Oc5ccc(S(C)(=O)=O)cc5F)C4=O)CC3)n2)c1C [Example 75, (S)-3-(2-fluoro-4-(methylsulfonyl)phenoxy)-1-(1-(3-(1,3,4-trimethyl-1H-pyrazol-5-yloxy)-1,2,4-thiadiazol-5-yl)piperidin-4-yl)pyrrolidin-2-one] | 6.9 | 2.7
3 | CC(C)c1nsc(N2CCC(N3CCC(Oc4ccc(C#N)cc4F)C3=O)CC2)n1 (stereo not shown) [Example 63, 3-Fluoro-4-(1-(1-(3-isopropyl-1,2,4-thiadiazol-5-yl)piperidin-4-yl)-2-oxopyrrolidin-3-yloxy)benzonitrile] | 7.4 | 2.7
4 | CC(C)c1nsc(N2CCC(N3CC[C@H](Nc4ccc(S(C)(=O)=O)cc4F)C3=O)CC2)n1 [Example 1, (S)-3-(2-fluoro-4-(methylsulfonyl)phenylamino)-1-(1-(3-isopropyl-1,2,4-thiadiazol-5-yl)piperidin-4-yl)pyrrolidin-2-one] | 21.6 | 3.3
5 | CS(=O)(=O)c1ccc(O[C@H]2CCN(C3CCN(c4nc(-c5cnco5)ns4)CC3)C2=O)c(F)c1 [Example 70, (S)-3-(2-fluoro-4-(methylsulfonyl)phenoxy)-1-(1-(3-(oxazol-5-yl)-1,2,4-thiadiazol-5-yl)piperidin-4-yl)pyrrolidin-2-one] | 11.4 | 3.1
